In patent publication US7049116B2, “Engineered protein kinases which can utilize modified nucleotide triphosphate substrates” (Princeton University, priority 1997, dated 2006):
“Also recorded” adds a separate entry of the source.

Tests used:
WT Fyn [1] = biological target: T1, WT Fyn (Homo sapiens, UniProt P06241); assay: In vitro kinase inhibition assay; assay type: biochemical; parameters: inhibition of Fyn: dose or concentration left out as unconfirmed
T1 construct: GST; made in house; host or cells: E. coli DH5α (pGEX-KT)
T1 sequence (P06241 1-534 isoform P06241-2): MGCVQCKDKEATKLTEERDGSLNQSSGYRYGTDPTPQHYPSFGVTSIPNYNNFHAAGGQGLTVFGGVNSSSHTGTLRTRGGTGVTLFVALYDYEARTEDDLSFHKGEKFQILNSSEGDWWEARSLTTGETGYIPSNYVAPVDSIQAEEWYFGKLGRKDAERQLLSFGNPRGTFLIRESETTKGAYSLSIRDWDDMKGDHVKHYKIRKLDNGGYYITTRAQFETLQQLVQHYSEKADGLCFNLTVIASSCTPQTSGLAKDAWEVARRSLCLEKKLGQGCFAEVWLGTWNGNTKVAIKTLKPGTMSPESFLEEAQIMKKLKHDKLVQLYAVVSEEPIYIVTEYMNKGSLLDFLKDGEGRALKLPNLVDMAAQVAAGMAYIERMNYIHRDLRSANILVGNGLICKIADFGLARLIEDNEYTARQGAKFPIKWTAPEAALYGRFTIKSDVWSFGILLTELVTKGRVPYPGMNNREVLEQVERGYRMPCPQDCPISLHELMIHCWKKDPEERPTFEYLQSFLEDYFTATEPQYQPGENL

[2] = system: B cell receptor (BCR) mediated phosphorylation cascade in murine spleen cells; assay: Murine B cell assay (B cell receptor mediated tyrosine phosphorylation); assay type: cell-based; conditions: 100 μM in […] DMSO, anti-IgM stimulated murine spleen cells
Description: Splenic lymphocytes were isolated from 6-20 week old Balb/c or C57/B6 mice. The cells were washed out of the spleen into RPMI media containing 1 mg/ml DNase I and the red blood cells were lysed in 17 mM tris-ammonium chloride (pH 7.2). Approximately 4×10^6 cells were incubated at 37° C. for thirty minutes with 100 μM of (3g) or (2) in 1.1% DMSO. B cell stimulation was initiated by the addition of […] of goat anti-mouse IgM (Jackson ImmunoResearch) and subsequent incubation for five minutes at 37° C. The cells were isolated by centrifugation (13,000 rpm, two minutes) and lysed (lysis buffer: 1% Triton x-100, 50 mM Tris (pH 7.4), 2 mM EDTA, 150 mM NaCl, 100 mM PMSF, 2 mM sodium orthovanadate, 10 mg/ml leupeptin, 10 mg/ml apoprotin). The cellular debris was then pelleted at 13,000 rpm for fifteen minutes. Cellular proteins were separated by 10% polyacrylamide gel electrophoresis and transferred to a nitrocellulose membrane by Western blotting. Phosphotyrosine containing proteins were visualized by immunoblotting with anti-phosphotyrosine antibody (Upstate Biotechnology).

GST-XD4 (I338A) = biological target: T2, GST-XD4 (I338A) (Rous sarcoma virus subgroup A, UniProt P00524, DEL77-225/I338A); assay: Autophosphorylation of single mutation v-Src mutants; assay type: biochemical; conditions: mutant with alanine at position 338
T2 construct: made in house
Text: (§1) However, these had only single mutations, at position 338. These were again expressed as GST-XD4 fusion proteins.
(§2) The panels on the right side of FIG. 7 tell an even more interesting story.

GST-XD4 (V323A, I338A) [3] = assay type: biochemical, Rous sarcoma virus
Description: (§3) Kinetic constants were determined by analysis of Lineweaver-Burk plots of the rate data (64). […] ATP (1000 cpm/pmol) or [γ-^32P] N^6(cyclopentyl)ATP (5000 cpm/pmol) as indicated.

GST-XD4 (V323A, I338A) [4] = biological target: T3, GST-XD4 (V323A, I338A) (Rous sarcoma virus subgroup A, UniProt P00524, DEL77-225/I338A/V323A); assay type: biochemical; conditions: GST-XD4 (V323A, I338A), 1 mM RR-Src, 37° C., pH 8.0
T3 construct: contains an intact SH1 catalytic domain but lacks the non-catalytic regulatory SH3 and SH2 domains; made in house; host or cells: E. coli DH5α (pGEX-KT)
Description: as §3

GST-XD4 [5] = biological target: T4, GST-XD4 (Rous sarcoma virus subgroup A, UniProt P00524, DEL77-225); assay type: biochemical
T4 construct: contains an intact SH1 catalytic domain but lacks the non-catalytic regulatory SH3 and SH2 domains; made in house; host or cells: E. coli DH5α (pGEX-KT)
Description: as §3

[6] = system: tyrosine kinases of murine lymphocyte cell lysate (CF); assay: Screening of nucleotide analogs in murine lymphocyte lysate, anti-phosphotyrosine immunoblot; assay type: biochemical; conditions: 100 μM nucleotide triphosphate, 37° C., five minutes
Description: To identify compounds that would not be accepted as substrates by any existing cellular kinases (53), Applicant screened a panel of synthetic A^*TP analogs in a murine lymphocyte lysate (CF) rich in protein tyrosine kinases (13).
The assays were performed using spleenocytes (8-30 week old male and female C57/B6 mice from the Princeton University Animal Facility) which were isolated and washed in RPMI-1640 medium containing 5% Bovine Calf Serum (BCS), 1% Hepes and DNaseI (1 μg/ml). Red cells were lysed at 4° C. by treatment with 17 mM Tris ammonium chloride (pH 7.2). The cells were hypotonically lysed on ice for ten minutes in 1 mM Hepes (pH 7.4), 5 mM MgCl2, leupeptin (10 μg/ml), aprotinin (10 μg /ml) and 100 μM PMSF according to the method of Fukazawa et al. (51). After vortexing and centrifugation at 500 × g, the supernatant was collected. Cells were stored at 4° C. for twenty minutes to attenuate the basal protein phosphorylation level, after which the buffer was adjusted to 20 mM Hepes (pH 7.4), 10 mM MgCl2 and 1 mM NaF. Sodium vanadate (100 μM) was then added to inhibit the activity of phosphotyrosine phosphatases.
Each nucleotide triphosphate was added to a final concentration of 100 μM to 5×10^6 cell equivalents and incubated at 37° C. for five minutes after which 4 × Laemmli gel loading buffer was added to the cell lysate to quench the reaction. Proteins were separated by 12.5% SDS-PAGE and transferred to Protran BA85 (Schleicher-Schuell). The blot was probed with the anti-phosphotyrosine monoclonal antibody 4G10 (Upstate Biotechnology) and the bound antibody was detected via enhanced chemiluminescence (Pierce) following treatment with HRP-coupled goat anti-mouse antibody (VWR catalog #710133) according to the manufacturer's instructions.
The cell lysate used includes the tyrosine kinases Src, Fyn, Lck, Lyn, Yes, Fgr, Hck, Zap, Syk, Btk, Blk, and other tyrosine kinases present in B and T lymphocytes, macrophages, and follicular dendritic cells (13). Molecular size standards (in kilodaltons) arc indicated.

I338G v-Src = biological target: T5, I338G v-Src (Rous sarcoma virus subgroup A, UniProt P00524, DEL77-225/I338G); assay: biochemical
T5 construct: made in house; host or cells: E. coli DH5α (pGEX-KT)

GST-XD4 (V323A, I338A) [7] = conditions: 100 μM analog, 10 μM [γ-32P]ATP
GST-XD4 (I338G) = biological target: T6, GST-XD4 (I338G) (Rous sarcoma virus subgroup A, UniProt P00524, DEL77-225/I338G); assay: Autophosphorylation of single mutation v-Src mutants; assay type: biochemical; conditions: mutant with glycine at position 338
T6 construct: made in house; host or cells: E. coli DH5α (pGEX-KT)
Text: as §1, §2

GST-XD4 (I338S) = biological target: T7, GST-XD4 (I338S) (Rous sarcoma virus subgroup A, UniProt P00524, DEL77-225/I338S); assay: as above; assay type: biochemical; conditions: mutant with serine at position 338
T7 construct: made in house
Text: as §1, §2

[8] = system: wild-type cellular kinases of murine lymphocyte lysates; assay: In vitro kinase reactions with radiolabeled nucleotide in murine lymphocyte lysates; assay type: biochemical; conditions: 100 μM radiolabeled nucleotide, 37° C., ten minutes
GST-XD4 (V323A, I338A) [9] = biological target: T3, GST-XD4 (V323A, I338A); assay: Autophosphorylation autoradiogram; assay type: biochemical; conditions: FIG. 5C lane 4
Text: (§4) It is even more significant that the new substrate, [γ-^32P]

GST-XD4 [10] = biological target: T4, GST-XD4; assay: Autophosphorylation autoradiogram; assay type: biochemical; conditions: GST-XD4, FIG. 5C lane 3
Text: as §4

PDGFR = conditions: cited from earlier work
WT Fyn [11] = biological target: T1, WT Fyn; conditions: published parent molecule; cited from earlier work

## CC(C)(C)n1nc(-c2ccccc2)c2c(N)ncnc21 [(2), 4-amino-1-tert-butyl-3-phenylpyrazolo(3,4-d)pyrimidine, reference compound]
WT Fyn [1]
  inhibition of WT Fyn (in words): highly potent (low nM)
[2]
  phosphotyrosine pattern of B cell stimulation: significant reduction in tyrosine phosphorylation

## Nc1ncnc2c1ncn2[C@@H]1O[C@H](COP(=O)(O)OP(=O)(O)OP(=O)(O)O)[C@@H](O)[C@H]1O [ATP, adenosine triphosphate, reference compound]
GST-XD4 (I338A)
  utilization as phosphate donor substrate (autophosphorylation): more readily than the mutant with serine; also recorded: better able to use ATP as a substrate than is the mutant with glycine
GST-XD4 (V323A, I338A) [3]; higher in mutant
  KM of the mutant for ATP relative to KM of GST-XD4 for ATP: more than 10 fold
GST-XD4 (V323A, I338A) [4]
  kcat: 0.013 ± 0.0033 s⁻¹
GST-XD4 [5]; GST-XD4, 1 mM RR-Src, 37° C., pH 8.0
  kcat: 0.033 ± 0.0083 s⁻¹

## CONc1ncnc2c1ncn2[C@@H]1O[C@H](COP(=O)(O)OP(=O)(O)OP(=O)(O)O)[C@@H](O)[C@H]1O [Analog 1, N^6(methoxy)ATP]
[6]
  level of protein tyrosine phosphorylation (ability to serve as cellular tyrosine kinase substrate): some ability to serve as cellular tyrosine kinase substrates

## CCONc1ncnc2c1ncn2[C@@H]1O[C@H](COP(=O)(O)OP(=O)(O)OP(=O)(O)O)[C@@H](O)[C@H]1O [Analog 2, N^6(ethoxy)ATP]
[6]
  level of protein tyrosine phosphorylation (ability to serve as cellular tyrosine kinase substrate): some ability to serve as cellular tyrosine kinase substrates

## CC(=O)Nc1ncnc2c1ncn2[C@@H]1O[C@H](COP(=O)(O)OP(=O)(O)OP(=O)(O)O)[C@@H](O)[C@H]1O [Analog 3, N^6(acetyl)ATP]
[6]
  level of protein tyrosine phosphorylation (ability to serve as cellular tyrosine kinase substrate): some ability to serve as cellular tyrosine kinase substrates

## CC(C)ONc1ncnc2c1ncn2[C@@H]1O[C@H](COP(=O)(O)OP(=O)(O)OP(=O)(O)O)[C@@H](O)[C@H]1O [Analog 4, N^6(i-propoxy)ATP]
[6]
  level of protein tyrosine phosphorylation (ability to serve as cellular tyrosine kinase substrate): little or no protein phosphorylation

## CC(C)(C)n1nc(-c2ccccc2)c2c(NCC3CCCC3)ncnc21 [Analog 4b, 4-cyclopentylmethylamino-1-tert-butyl-3-phenylpyrazolo[3,4-d]pyrimidine]
WT Fyn [1]
  inhibition of WT Fyn (in words): sufficiently orthogonal
I338G v-Src
  inhibition of I338G v-Src (in words): only poor to moderate inhibition

## CC(C)(C)n1nc(-c2ccccc2)c2c(NCc3ccco3)ncnc21 [Analog 4d, 4-2′-furylmethylamino-1-tert-butyl-3-phenylpyrazolol[3,4-d]pyrimidine]
WT Fyn [1]
  inhibition of WT Fyn (in words): sufficiently orthogonal
I338G v-Src
  inhibition of I338G v-Src (in words): only poor to moderate inhibition

## CC(C)(C)n1nc(-c2ccccc2)c2c(NCc3ccccc3)ncnc21 [Analog 4e, 4-benzylamino-1-tert-buty-3-phenylpyrazolo[3,4-d]pyrimidine]
WT Fyn [1]
  inhibition of WT Fyn (in words): sufficiently orthogonal
I338G v-Src
  inhibition of I338G v-Src (in words): only poor to moderate inhibition

## O=P(O)(O)OP(=O)(O)OP(=O)(O)OC[C@H]1O[C@@H](n2cnc3c(NCc4ccccc4)ncnc32)[C@H](O)[C@@H]1O [Analog 5, N^6(benzyl)ATP]
[6]
  level of protein tyrosine phosphorylation (ability to serve as cellular tyrosine kinase substrate): little or no protein phosphorylation
GST-XD4 (V323A, I338A) [7]
  relative inhibition of GST-XD4 (V323A, I338A) catalyzed RR-Src phosphorylation: almost as well as the wild-type kinase

## O=P(O)(O)OP(=O)(O)OP(=O)(O)OC[C@H]1O[C@@H](n2cnc3c(NOCc4ccccc4)ncnc32)[C@H](O)[C@@H]1O [Analog 6, N^6(benzyloxy)ATP]
[6]
  level of protein tyrosine phosphorylation (ability to serve as cellular tyrosine kinase substrate): little or no protein phosphorylation

## O=P(O)(O)OP(=O)(O)OP(=O)(O)OCC1OC(n2cnc3c(NC4CCCC4)ncnc32)C(O)C1O (stereo not shown) [Analog 8, N^6(cyclopentyl)ATP]
[6]
  level of protein tyrosine phosphorylation (ability to serve as cellular tyrosine kinase substrate): slightly lower level of phosphorylation with wild-type kinases
GST-XD4 (I338G)
  utilization as phosphate donor substrate (autophosphorylation): better able to use N^6(cyclopentyl)ATP as substrate than is the mutant with alanine
GST-XD4 (I338S)
  utilization as phosphate donor substrate (autophosphorylation): not able to utilize N6(cyclopentyl)ATP nearly as well as is the mutant with alanine
GST-XD4 (V323A, I338A) [3]; lower than wild-type with ATP
  kcat/KM of mutant with orthogonal substrate relative to kcat/KM of wild-type kinase with ATP: 50 fold
GST-XD4 (V323A, I338A) [4]
  kcat: 0.00083 ± 0.00033 s⁻¹
[8]
  radiolabeled phosphoproteins in cell lysate: no radiolabeled phosphoproteins
GST-XD4 (V323A, I338A) [7]
  relative inhibition of GST-XD4 (V323A, I338A) catalyzed RR-Src phosphorylation: almost as well as the wild-type kinase
GST-XD4 (V323A, I338A) [9]
  use as phosphodonor for autophosphorylation: efficiently autophosphorylated
GST-XD4 [10]
  use as phosphodonor for autophosphorylation: apparent complete inability
GST-XD4 [5]; wild-type GST-XD4
  phosphorylation of RR-Src peptide with the nucleotide as phosphate donor: did not substantially phosphorylate

## O=P(O)(O)OP(=O)(O)OP(=O)(O)OC[C@H]1O[C@@H](n2cnc3c(NOC4CCCC4)ncnc32)[C@H](O)[C@@H]1O [Analog 9, N^6(cyclopentyloxy)ATP]
GST-XD4 (V323A, I338A) [7]
  relative inhibition of GST-XD4 (V323A, I338A) catalyzed RR-Src phosphorylation: almost as well as the wild-type kinase

## O=P(O)(O)OP(=O)(O)OP(=O)(O)OC[C@H]1O[C@@H](n2cnc3c(NC4CCCCC4)ncnc32)[C@H](O)[C@@H]1O [Analog 11, N^6(cyclohexyl)ATP]
GST-XD4 (V323A, I338A) [7]
  relative inhibition of GST-XD4 (V323A, I338A) catalyzed RR-Src phosphorylation: almost as well as the wild-type kinase

## OCC1OC(n2cnc3c(NOC4CCCC4)ncnc32)C(O)C1O (stereo not shown) [N^6 cyclopentyloxyadenosine]
WT Fyn [1]; concentrations up
  inhibition of Fyn: no detectable in vitro inhibition

## Cc1ccc(-c2nn(C(C)(C)C)c3ncnc(N)c23)cc1 [PPI, 4-amino-1-tert-butyl-3-(p-methylphenyl)pyrazolo(3,4-d)pyrimidine]
WT Fyn [11]
  inhibition of Fyn (in words): highly potent (low nM)
